Tests used:
[1] = molecular target: human serotonin 5-HT2A (Homo sapiens, UniProt P28223); test: Behavioral receptor assays: 5-HT2A; assay type: binding; conditions: read-out: Receptors (IC50) 5-HT2A
Experimental: (§1) Various compounds of the present invention (19, 31, and 32) were evaluated in a group of assays based on mammalian cellular receptors associated with behavior. The group consisted of assays base on human dopamine D1, D2L, D3, D4.2, D4.4, D4.7, and D5 receptors, and the transporter; human serotonin 5-HT1A, 5-HT1B, 5-HT1D, 5-HT2A, 5-HT2B, 5-HT2C, 5-HT3, 5-HT5A, 5-HT6, and 5-HT7 receptors, and the human serotonin transporter; guinea pig 5-HT4 and sigma-1 receptors; rat sigma-2 and muscarinic receptors; and human NK1-3 receptors. The following table presents a subset of the results of these assays.

[2] = molecular target: human serotonin 5-HT2B (Homo sapiens, UniProt P41595); test: Behavioral receptor assays: 5-HT2B; assay type: binding; conditions: read-out: Receptors (IC50) 5-HT2B
Sequence of human serotonin 5-HT2B (P41595 whole entry): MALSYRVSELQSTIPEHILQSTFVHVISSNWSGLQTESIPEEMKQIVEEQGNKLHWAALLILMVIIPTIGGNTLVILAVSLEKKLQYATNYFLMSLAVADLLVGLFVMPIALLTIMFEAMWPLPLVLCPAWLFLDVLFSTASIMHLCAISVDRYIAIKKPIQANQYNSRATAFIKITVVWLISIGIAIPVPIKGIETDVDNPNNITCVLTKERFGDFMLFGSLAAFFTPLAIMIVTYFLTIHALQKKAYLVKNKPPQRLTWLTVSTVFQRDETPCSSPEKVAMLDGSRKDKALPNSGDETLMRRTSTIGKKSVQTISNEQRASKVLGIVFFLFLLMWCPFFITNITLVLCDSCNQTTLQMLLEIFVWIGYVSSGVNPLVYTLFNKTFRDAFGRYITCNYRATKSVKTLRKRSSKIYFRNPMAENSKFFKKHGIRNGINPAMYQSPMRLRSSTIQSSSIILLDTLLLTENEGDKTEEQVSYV
Experimental: as §1

[3] = tested on: Male Wistar rats; test: MK-801-Induced Psychosis Model; assay type: in vivo, rat; conditions: rat, 1 mg/kg i.p.; MK-801 0.3 mg/kg i.p.
From the text: The non-competitive NMDA receptor antagonist MK-801 induces stereotypies and hyperactivity in rodents (1) by interacting with the NMDA receptor-associated ion channel. Phencyclidine, which also interferes with the NMDA receptor, produces psychotic effects in humans similar in many respects to schizophrenia. […] Therefore the MK-801-induced activity and stereotypies in rats may represent an appropriate animal model to test the potential efficacy of antipsychotic drugs.
Male Wistar rats (Iffa Crédo, St Germain/l'Arbresle, France), weight 250-300 g were housed 2 per cage on a 12 h/12 h light dark cycle (lights on at 7.00 a.m.) at a room temperature of 21±2° C. for a minimum of 5 days before testing. All animals had access to commercial food and tap water ad libitum.
On the day of the experiment, rats were treated with either reference drug vehicle, the reference drugs haloperidol or clozapine the test compound vehicle or test compounds. After administration, the rats were returned to their home cages for 15 minutes. […] The remaining rats treated with placebo received a second injection of vehicle. The standard injection volume was 2.0 ml/kg. After 10 minutes in the home cages, rats were transferred to the test box (Plexiglas, 29×12×12 cm), 5 minutes before the assessment for accomodation. The test box was cleaned with 70% ethanol before each assessment. Stereotypies, defined as wall-contacts with the snout, and locomotion, defined as turn-rounds of 180°, were assessed during 5 minute periods.

[4] = tested on: Male rats; test: Elevated plus maze test (anxiolytic effects); assay type: in vivo; conditions: rat, doses 1 mg/kg and 5 mg/kg
From the text: In the present study, 32 was investigated on measures of anxiety in an elevated plus-maze test in the rat. In this test, an anxiolytic effect is defined as an increase in the percentage of total entries made onto the open arms and an increase in the percentage of time spent on the open arms of the elevated plus-maze. Anxiogenic drugs reduce both of these measures.
Male rats (Iffa Crédo, St Germain/l'Arbresle, France), weight 220−320 g ate the beginning of the experiment were housed 2 per cage on a 12 h/12 h light dark cycle (lights on at 7.00 a.m.) at a room temperature of 21±2° C. for a minimum of 5 days before testing. All animals had access to commercial food and tap water ad libitum.
The elevated plus maze test consists of four arms connected by a central square, the arms are all horizontal and at 90° […]. angle from each other making the shape of a plus sign. The maze is raised to a height of 50 cm from the ground. […] These arms are therefore referred to as the enclosed arms, respectively.
Each test was started by placing the rat at the intersect of the maze arms facing into one of the enclosed arms. The rat had free access to all 4 arms for the period of 5 min. The number and duration of entries into each arm during this time were scored manually.
Undruged rats typically spend 30-60 seconds on the open arms and about 3 minutes on the closed arms. […]

[5] = molecular target: Human Adrenergic α2A (Homo sapiens, UniProt P08913); test: Additional receptor assay; assay type: binding
Sequence of Human Adrenergic α2A (P08913 whole entry): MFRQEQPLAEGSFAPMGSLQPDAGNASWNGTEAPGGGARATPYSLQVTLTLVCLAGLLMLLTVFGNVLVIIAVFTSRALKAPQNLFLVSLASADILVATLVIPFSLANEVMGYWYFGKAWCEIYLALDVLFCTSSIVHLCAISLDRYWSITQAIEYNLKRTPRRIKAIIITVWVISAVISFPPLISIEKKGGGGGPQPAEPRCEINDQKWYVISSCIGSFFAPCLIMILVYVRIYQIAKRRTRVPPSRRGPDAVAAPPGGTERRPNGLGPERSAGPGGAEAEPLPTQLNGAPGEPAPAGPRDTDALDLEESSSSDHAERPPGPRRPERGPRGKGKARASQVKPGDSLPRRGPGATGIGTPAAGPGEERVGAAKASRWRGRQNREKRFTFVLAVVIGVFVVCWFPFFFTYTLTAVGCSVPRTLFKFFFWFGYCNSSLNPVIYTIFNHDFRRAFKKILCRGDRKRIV
Experimental: (§2) Results of Additional Receptor Assays Performed on Compound 31 at a Concentration of 10 μM

[6] = molecular target: Human Adrenergic α2C (Homo sapiens, UniProt P18825); test: Additional receptor assay; assay type: binding
Sequence of Human Adrenergic α2C (P18825 whole entry): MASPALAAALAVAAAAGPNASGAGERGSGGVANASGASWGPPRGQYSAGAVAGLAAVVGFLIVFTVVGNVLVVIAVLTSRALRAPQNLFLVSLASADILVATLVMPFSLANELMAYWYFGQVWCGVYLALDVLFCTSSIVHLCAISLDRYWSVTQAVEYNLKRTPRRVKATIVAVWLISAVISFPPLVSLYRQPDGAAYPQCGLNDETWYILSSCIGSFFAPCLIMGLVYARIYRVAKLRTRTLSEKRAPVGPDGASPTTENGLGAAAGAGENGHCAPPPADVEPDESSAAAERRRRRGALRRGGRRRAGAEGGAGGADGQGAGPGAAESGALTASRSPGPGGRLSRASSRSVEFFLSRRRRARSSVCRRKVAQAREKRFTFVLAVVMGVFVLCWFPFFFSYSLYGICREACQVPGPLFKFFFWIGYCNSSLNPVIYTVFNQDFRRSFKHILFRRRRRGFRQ
Experimental: as §2

[7] = molecular target: Human Adrenergic β1 (Homo sapiens, UniProt P08588); test: Additional receptor assay; assay type: binding
Sequence of Human Adrenergic β1 (P08588 whole entry): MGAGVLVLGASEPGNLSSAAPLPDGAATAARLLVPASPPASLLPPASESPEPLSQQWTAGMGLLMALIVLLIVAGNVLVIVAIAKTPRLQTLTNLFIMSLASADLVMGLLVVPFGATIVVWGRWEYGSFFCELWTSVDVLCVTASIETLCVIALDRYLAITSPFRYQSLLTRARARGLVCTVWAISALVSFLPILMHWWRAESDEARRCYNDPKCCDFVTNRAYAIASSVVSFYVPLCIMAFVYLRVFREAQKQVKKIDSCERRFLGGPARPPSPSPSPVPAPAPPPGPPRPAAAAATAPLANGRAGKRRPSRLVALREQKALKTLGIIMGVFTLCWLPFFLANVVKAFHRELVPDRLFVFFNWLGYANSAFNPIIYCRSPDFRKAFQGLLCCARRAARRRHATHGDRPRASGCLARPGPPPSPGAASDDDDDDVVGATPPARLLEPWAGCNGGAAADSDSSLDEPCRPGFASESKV
Experimental: as §2

[8] = molecular target: Human Adrenergic β2 (Homo sapiens, UniProt P07550); test: Additional receptor assay; assay type: binding
Sequence of Human Adrenergic β2 (P07550 whole entry): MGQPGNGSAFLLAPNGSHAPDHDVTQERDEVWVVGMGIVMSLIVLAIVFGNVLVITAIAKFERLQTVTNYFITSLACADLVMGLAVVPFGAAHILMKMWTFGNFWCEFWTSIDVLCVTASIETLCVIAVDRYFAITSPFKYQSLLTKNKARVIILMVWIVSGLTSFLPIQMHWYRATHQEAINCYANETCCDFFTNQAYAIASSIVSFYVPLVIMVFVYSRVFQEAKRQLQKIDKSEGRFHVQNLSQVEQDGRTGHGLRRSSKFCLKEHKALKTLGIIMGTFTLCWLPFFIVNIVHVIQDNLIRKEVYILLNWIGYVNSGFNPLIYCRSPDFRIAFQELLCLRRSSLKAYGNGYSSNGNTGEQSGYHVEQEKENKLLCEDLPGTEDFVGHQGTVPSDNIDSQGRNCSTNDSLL
Experimental: as §2

[9] = molecular target: Human Adrenergic β3 (Homo sapiens, UniProt P13945); test: Additional receptor assay; assay type: binding
Sequence of Human Adrenergic β3 (P13945 whole entry): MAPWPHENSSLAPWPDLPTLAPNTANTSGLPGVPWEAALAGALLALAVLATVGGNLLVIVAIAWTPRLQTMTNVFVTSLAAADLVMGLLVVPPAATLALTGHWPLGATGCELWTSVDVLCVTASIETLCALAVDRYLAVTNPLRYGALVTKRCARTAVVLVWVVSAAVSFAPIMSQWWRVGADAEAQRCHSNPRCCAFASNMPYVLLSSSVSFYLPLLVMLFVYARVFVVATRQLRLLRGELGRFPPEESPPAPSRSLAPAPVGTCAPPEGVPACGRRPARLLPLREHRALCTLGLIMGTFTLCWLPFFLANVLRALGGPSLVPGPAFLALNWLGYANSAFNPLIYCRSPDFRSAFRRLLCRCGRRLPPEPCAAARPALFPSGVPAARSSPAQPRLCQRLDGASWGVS
Experimental: as §2

[10] = molecular target: Human Orphanin (ORL1) (Homo sapiens, UniProt P41146); test: Additional receptor assay; assay type: binding
Sequence of Human Orphanin (ORL1) (P41146 whole entry): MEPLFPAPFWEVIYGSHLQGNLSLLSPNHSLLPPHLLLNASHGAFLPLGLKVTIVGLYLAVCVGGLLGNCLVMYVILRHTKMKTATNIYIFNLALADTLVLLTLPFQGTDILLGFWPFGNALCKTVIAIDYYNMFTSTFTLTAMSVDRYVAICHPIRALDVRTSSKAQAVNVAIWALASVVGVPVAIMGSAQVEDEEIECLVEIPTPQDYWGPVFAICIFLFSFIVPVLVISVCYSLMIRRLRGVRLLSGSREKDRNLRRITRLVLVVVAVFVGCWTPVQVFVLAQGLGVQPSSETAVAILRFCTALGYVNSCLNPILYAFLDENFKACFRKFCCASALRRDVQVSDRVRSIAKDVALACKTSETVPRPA
Experimental: as §2

[11] = tested on: Rat Adrenergic α1; test: Additional receptor assay; assay type: binding; conditions: 10 μM
Experimental: as §2

[12] = tested on: Rat GABAA Agonist Site; test: Additional receptor assay; assay type: binding; conditions: 10 μM
Experimental: as §2

[13] = tested on: Rat GABAA Benzodiazepine (Central); test: Additional receptor assay; assay type: binding; conditions: 10 μM
Experimental: as §2

[14] = molecular target: Rat GABAA Benzodiazepine (Peripheral) (Rattus norvegicus, UniProt P16257); test: Additional receptor assay; assay type: binding
Experimental: as §2

[15] = tested on: Rat GABAA Chloride Channel; test: Additional receptor assay; assay type: binding; conditions: 10 μM
Experimental: as §2

[16] = tested on: Rat GABAA Transporter; test: Additional receptor assay; assay type: binding; conditions: 10 μM
Experimental: as §2

[17] = molecular target: Rat GABAB (Rattus norvegicus, UniProt Q9Z0U4); test: Additional receptor assay; assay type: binding; conditions: 10 μM
Sequence of Rat GABAB (Q9Z0U4 17-960 limits assumed): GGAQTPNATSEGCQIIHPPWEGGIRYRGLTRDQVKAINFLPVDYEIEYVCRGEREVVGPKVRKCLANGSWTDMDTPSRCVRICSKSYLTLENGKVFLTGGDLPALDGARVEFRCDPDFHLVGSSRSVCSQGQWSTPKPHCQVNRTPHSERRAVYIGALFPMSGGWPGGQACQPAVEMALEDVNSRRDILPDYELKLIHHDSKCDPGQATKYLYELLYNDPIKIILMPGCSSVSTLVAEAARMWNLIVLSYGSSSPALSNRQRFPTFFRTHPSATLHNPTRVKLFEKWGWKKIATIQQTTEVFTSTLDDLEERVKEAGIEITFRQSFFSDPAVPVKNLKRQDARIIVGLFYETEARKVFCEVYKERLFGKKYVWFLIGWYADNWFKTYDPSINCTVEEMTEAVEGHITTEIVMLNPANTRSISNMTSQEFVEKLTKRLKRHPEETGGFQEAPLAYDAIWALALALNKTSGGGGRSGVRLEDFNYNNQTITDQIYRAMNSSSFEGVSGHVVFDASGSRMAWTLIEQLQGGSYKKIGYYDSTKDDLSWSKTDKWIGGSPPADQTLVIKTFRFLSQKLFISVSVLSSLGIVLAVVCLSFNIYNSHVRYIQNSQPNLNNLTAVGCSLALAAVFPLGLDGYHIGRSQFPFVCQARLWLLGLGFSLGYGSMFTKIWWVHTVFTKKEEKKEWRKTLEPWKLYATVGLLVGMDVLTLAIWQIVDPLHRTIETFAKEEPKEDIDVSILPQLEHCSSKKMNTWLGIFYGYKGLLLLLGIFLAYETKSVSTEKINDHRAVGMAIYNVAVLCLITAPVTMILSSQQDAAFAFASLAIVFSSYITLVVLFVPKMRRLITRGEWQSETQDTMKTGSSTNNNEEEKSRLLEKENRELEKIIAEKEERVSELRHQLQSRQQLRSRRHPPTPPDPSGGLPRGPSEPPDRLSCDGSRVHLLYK
Sequence of Rat GABAB (O88871 41-940 partner): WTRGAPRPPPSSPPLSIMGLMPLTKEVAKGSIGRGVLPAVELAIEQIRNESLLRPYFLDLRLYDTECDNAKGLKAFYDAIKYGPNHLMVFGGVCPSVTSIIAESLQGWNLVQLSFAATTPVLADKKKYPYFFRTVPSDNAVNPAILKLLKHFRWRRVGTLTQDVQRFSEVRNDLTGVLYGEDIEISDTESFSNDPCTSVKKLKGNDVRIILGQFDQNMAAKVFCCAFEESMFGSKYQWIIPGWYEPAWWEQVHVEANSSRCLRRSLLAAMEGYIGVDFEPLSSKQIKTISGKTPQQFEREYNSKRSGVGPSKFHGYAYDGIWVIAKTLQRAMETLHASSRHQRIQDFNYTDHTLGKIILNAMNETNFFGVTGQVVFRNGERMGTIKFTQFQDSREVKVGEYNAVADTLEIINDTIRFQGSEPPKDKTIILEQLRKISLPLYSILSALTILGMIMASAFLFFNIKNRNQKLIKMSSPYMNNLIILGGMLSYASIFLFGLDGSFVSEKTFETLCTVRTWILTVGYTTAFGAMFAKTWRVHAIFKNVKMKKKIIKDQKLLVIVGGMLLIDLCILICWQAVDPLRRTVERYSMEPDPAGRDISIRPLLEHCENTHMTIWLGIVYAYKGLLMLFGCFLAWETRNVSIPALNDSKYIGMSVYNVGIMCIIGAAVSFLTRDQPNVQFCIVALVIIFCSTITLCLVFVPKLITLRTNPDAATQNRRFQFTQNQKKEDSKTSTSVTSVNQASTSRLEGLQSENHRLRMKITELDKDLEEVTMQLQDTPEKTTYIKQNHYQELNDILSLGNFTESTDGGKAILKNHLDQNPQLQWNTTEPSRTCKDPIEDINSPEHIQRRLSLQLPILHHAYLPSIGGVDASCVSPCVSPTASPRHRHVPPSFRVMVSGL
Experimental: as §2

[18] = tested on: Rat Glutamate, NMDA (Agonist); test: Additional receptor assay; assay type: binding; conditions: 10 μM
Experimental: as §2

[19] = molecular target: Rat Glutamate, NMDA (Glycine) (Rattus norvegicus, UniProt P35439); test: Additional receptor assay; assay type: binding
Experimental: as §2

[20] = tested on: Rat Glutamate, NMDA (Phencyclidine); test: Additional receptor assay; assay type: binding; conditions: 10 μM
Experimental: as §2

[21] = tested on: Rat Glutamate, NMDA (Polyamine); test: Additional receptor assay; assay type: binding; conditions: 10 μM
Experimental: as §2

With OC1CCC2(CCN(Cc3ccc(F)cc3)CC2)Nc2ccccc21 (racemic) [Compound 32, 1′-(4-fluorobenzyl)-3,4-dihydrospiro[5H-1-benzazepine-2(1H)-4′-piperidin]-5ol] the IC50 [1] was greater than 1000 nM, the IC50 [2] was less than 1000 nM and the MK-801-induced locomotion [3] was “caused a reduction”. The MK-801-induced stereotypies [3] was “caused a reduction” and the “anxiolytic effect in elevated plus-maze” value [4] was “tendency towards an anxiolytic effects”.
For O=C1CCC2(CCN(Cc3ccc(F)cc3)CC2)Nc2ccccc21 [Compound 31, 1′-(4-fluorobenzyl)-3,4-dihydrospiro[5H-1-benzazepine-2(1H)-4′-piperidin]-5-one], the inhibition at 10 µM [5] was 34%, the inhibition at 10 µM [6] was 2% and the inhibition at 10 µM [7] was 3%. For the same molecule, the inhibition at 10 µM [8] was 15%, the inhibition at 10 µM [9] was 19% and the inhibition at 10 µM [10] was 12%. For the same molecule, the “% Inhibition Rat Adrenergic α1” value [11] was 21%, the “% Inhibition Rat GABAA Agonist Site” value [12] was 13% and the “% Inhibition Rat GABAA Benzodiazepine (Central)” value [13] was 6%. The inhibition at 10 µM [14] was 16%, the “% Inhibition Rat GABAA Chloride Channel” value [15] was “No Inhibition” and the “% Inhibition Rat GABAA Transporter” value [16] was “No Inhibition”. The “% Inhibition Rat GABAB” value [17] was “No Inhibition”, the “% Inhibition Rat Glutamate, NMDA (Agonist)” value [18] was “No Inhibition” and the inhibition at 10 µM [19] was 2%. For the same molecule, the “% Inhibition Rat Glutamate, NMDA (Phencyclidine)” value [20] was “No Inhibition” and the “% Inhibition Rat Glutamate, NMDA (Polyamine)” value [21] was 12%.

Reference: patent US6476019B1, “Spirocyclic ligands for sigma receptors, and libraries and methods of use thereof” (Sepracor Inc., priority 1999, dated 2002)
